# Measured values as given in US9328122B2, “7-substituted Hanfangichin B derivative, and preparation method and use thereof” (HANGZHOU BENSHENG PHARMACEUTICAL CO., LTD., priority 2012, dated 2016).
# How the values were obtained:
# [1] = test system: H9 (acute lymphoblastic leukemia) cells; assay: MTT cell growth inhibition, leukemia cells; assay type: cell-based, human; conditions: for IC50 / IC90: Homo sapiens, H9, 72 h, MTT; for IC50: read-out: IC50; for IC90: read-out: IC90
# Source text: (§1) Leukemia cell lines: leukemia cell lines: K562adr (drug-resistant, chronic myeloid leukemia, CML), NB4 (acute promyelocytic leukemia, AML), Kasumi-1 (acute myeloid leukemia M2 type, AML-M2), Jurkat (acute lymphoblastic leukemia, ALL), all of which were donated by Cancer Research Institute of Zhejiang University, China; and H9 (acute lymphoblastic leukemia, ALL), which was purchased from China Center for Type Culture Collection.
# (§2) Reagents: The standard sample of fangchinoline (FAN) was purchased from Ci Yuan Biotechnology Co., Ltd., Shaanxi, China; and the 7-substituted fangchinoline derivatives according to the present invention.
# (§3) 6000 well-growing leukemia cells were obtained and inoculated into wells of a 96-well cell culture plate. The culture medium was a RPMI-1640 cell culture medium containing 10% fetal bovine serum. After adding the 7-substituted fangchinoline derivatives of different concentrations the next day and mixing uniformly, the plate was placed in a carbon dioxide cell incubator (5% CO2) at 37° C. and incubating for 72 hours. Then the viable cell concentration was determined by the MTT method.
# [2] = test system: Jurkat (acute lymphoblastic leukemia) cells; assay: MTT cell growth inhibition, leukemia cells; assay type: cell-based, human; conditions: for IC50 / IC90: Homo sapiens, Jurkat, 72 h, MTT; for IC50: read-out: IC50; for IC90: read-out: IC90
# Source text: as §1, §2, §3
# [3] = test system: Kasumi-1 (acute myeloid leukemia M2 type) cells; assay: MTT cell growth inhibition, leukemia cells; assay type: cell-based, human; conditions: for IC50 / IC90: Homo sapiens, Kasumi-1, 72 h, MTT; for IC50: read-out: IC50; for IC90: read-out: IC90
# Source text: as §1, §2, §3
# [4] = test system: KCL-22M transplanted tumor; assay: Transplanted tumor of leukemia in nude mice; assay type: in vivo, BALBc nude mice
# Procedure: Leukemia cell lines: KCL-22M (human chronic myeloid leukemia mutant strain);
# The mice were administered from the second day after the inoculation. […] The administrations were successive for 10 days. […] On Day 25, the mice were sacrificed and the tumors are taken out and weighed.
# [5] = test system: Hep G2 transplanted tumor; assay: Transplanted tumor of liver cancer in nude mice
# Procedure: Liver cancer cell lines: Hep G2 (human liver cancer cell line);
# Animal: BALBc nude mice (immunodeficient mice), 8 weeks, female, purchased from Shanghai Laboratory Animal Center of Chinese Academy of Sciences, China.
# Under sterile conditions, the Hep G2 cells in the logarithmic growth phase were respectively collected and injected subcutaneously in an amount of 2.3×10^7/0.2 mL/nude mice (cell viability >90%) into the left subaxillary of the nude mice, thus establishing a transplanted tumor model of liver cancer in nude mice. The mice were administered from the second day after inoculation. The experimental group was intragastrically administered with the experimentally designed amount, the negative control group was intragastrically administered with sterile water, and the positive control group was intragastrically administered with erlotinib hydrochloride. Each mouse was intragastrically administered in 0.4 ml each time and 3 times a day, at 8:00, 14:00 and 20:00, with 6-hour intervals. The administrations were successive for 10 days. The day before administration was deemed as Day 0 and the weight and tumor size of the mice were determined every 5 days to produce a dynamic plot on weight and tumor growth (the experimental results are presented as mean±SD). On Day 28, the mice were sacrificed and the tumors were taken out and weighed. The tumor inhibition rate (%) after the effect of the medicament was calculated based on a tumor inhibition rate of the control group being zero.
# The experimental data for each group were analyzed by using the One-way ANOVA method in the SPSS 19.0 statistical software and were compared with the control group for significance of difference.
# [6] = relative to fangchinoline, Table 1
SMILES,IC50 [1],IC90 [1],"anti-H9 activity increase over fangchinoline [1, 6]",IC50 [2],IC90 [2],"anti-Jurkat activity increase over fangchinoline [2, 6]",IC50 [3],IC90 [3],"animal's weight during the administration (toxic and side effects) ([4]; 30 mg/kg/time, three administrations per day, weight rebounded after administration was stopped)","Mass of tumor ([4]; KCL-22M transplanted tumor, Day 25, 30 mg/kg/time intragastric 3 times a day for 10 days)","Tumor Inhibition rate ([4]; KCL-22M transplanted tumor, Day 25, 30 mg/kg/time intragastric 3 times a day for 10 days, control = 0)","Body Weight (g) Initial ([4]; KCL-22M tumor nude mice, before administration, 30 mg/kg/time intragastric 3 times a day, mean±SD)","Body Weight (g) Final ([4]; KCL-22M tumor nude mice, final, 30 mg/kg/time intragastric 3 times a day for 10 days, mean±SD)","Mass of tumor ([5]; Hep G2 transplanted tumor, Day 28, intragastric 3 times a day for 10 days, BS-FC-308 35 mg/kg/time, erlotinib hydrochloride 20 mg/kg/time)","Tumor Inhibition rate ([5]; Hep G2 transplanted tumor, Day 28, intragastric 3 times a day for 10 days, BS-FC-308 35 mg/kg/time, erlotinib hydrochloride 20 mg/kg/time, control = 0)","Body Weight (g) Initial ([5]; Hep G2 tumor nude mice, before administration, intragastric 3 times a day, BS-FC-308 35 mg/kg/time, erlotinib hydrochloride 20 mg/kg/time, mean±SD)","Body Weight (g) Final ([5]; Hep G2 tumor nude mice, final, intragastric 3 times a day for 10 days, BS-FC-308 35 mg/kg/time, erlotinib hydrochloride 20 mg/kg/time, mean±SD)",weight of the Hep G2 transplanted tumors (FIG. 3) ([5]; nude mice),"anti-Kasumi-1 activity increase over fangchinoline [3, 6]"
COc1ccc2cc1Oc1ccc(cc1)C[C@H]1c3cc(c(OC)cc3CCN1C)Oc1c(OC(=O)c3ccc(N(C)C)cc3)c(OC)cc3c1[C@H](C2)N(C)CC3 [BS-FC-308],0.7 µg/mL,1.8 µg/mL,> 3 fold,0.36 µg/mL,1.62 µg/mL,more than 4 fold,0.81 µg/mL,1.9 µg/mL,weight was reduced,521 ± 249 mg,74.45%,19.5 ± 0.2 g,15.4 ± 1.51 g,566 ± 112.26 mg,55.82%,21.8 ± 0.62 g,19.0 ± 0.49 g,significantly reduces,
COc1cc(OC)cc(C(=O)Oc2c(OC)cc3c4c2Oc2cc5c(cc2OC)CCN(C)[C@H]5Cc2ccc(cc2)Oc2cc(ccc2OC)C[C@@H]4N(C)CC3)c1 [BS-FC-311],1.2 µg/mL,2 µg/mL,,0.51 µg/mL,0.98 µg/mL,,0.57 µg/mL,1.85 µg/mL,,,,,,,,,,,~2 fold
COc1ccc2cc1Oc1ccc(cc1)C[C@H]1c3cc(c(OC)cc3CCN1C)Oc1c(OC(=O)c3c(F)cccc3Cl)c(OC)cc3c1[C@H](C2)N(C)CC3 [BS-FC-315],2 µg/mL,3.77 µg/mL,,0.59 µg/mL,1.24 µg/mL,,0.85 µg/mL,3.04 µg/mL,,,,,,,,,,,
COc1ccc2cc1Oc1ccc(cc1)C[C@H]1c3cc(c(OC)cc3CCN1C)Oc1c(OCC(O)CN3CCCCC3)c(OC)cc3c1[C@H](C2)N(C)CC3 (stereo partly shown) [BS-FC-403],0.88 µg/mL,1.9 µg/mL,,0.58 µg/mL,0.96 µg/mL,,0.88 µg/mL,2 µg/mL,,,,,,,,,,,
COc1ccc2cc1Oc1ccc(cc1)C[C@H]1c3cc(c(OC)cc3CCN1C)Oc1c(OCC(O)CNCC3CC3)c(OC)cc3c1[C@H](C2)N(C)CC3 (stereo partly shown) [BS-FC-405],1.45 µg/mL,2.9 µg/mL,,0.56 µg/mL,0.99 µg/mL,,0.76 µg/mL,1.75 µg/mL,,,,,,,,,,,
C=CCN(C)CC(O)COc1c(OC)cc2c3c1Oc1cc4c(cc1OC)CCN(C)[C@H]4Cc1ccc(cc1)Oc1cc(ccc1OC)C[C@@H]3N(C)CC2 (stereo partly shown) [BS-FC-409],0.9 µg/mL,2 µg/mL,,1.02 µg/mL,3.33 µg/mL,,1.46 µg/mL,4.82 µg/mL,,,,,,,,,,,
COc1ccc2cc1Oc1ccc(cc1)C[C@H]1c3cc(c(OC)cc3CCN1C)Oc1c(OCC(O)CN3CCCC(C)C3)c(OC)cc3c1[C@H](C2)N(C)CC3 (stereo partly shown) [BS-FC-410],1.13 µg/mL,2 µg/mL,,0.64 µg/mL,1.61 µg/mL,,0.84 µg/mL,1.86 µg/mL,,,,,,,,,,,
COc1ccc2cc1Oc1ccc(cc1)C[C@H]1c3cc(c(OC)cc3CCN1C)Oc1c(OCC(O)CN3CCSCC3)c(OC)cc3c1[C@H](C2)N(C)CC3 (stereo partly shown) [BS-FC-417],1.3 µg/mL,3.6 µg/mL,,1.24 µg/mL,5.47 µg/mL,,1.45 µg/mL,3.63 µg/mL,,,,,,,,,,,
COc1ccc2cc1Oc1ccc(cc1)C[C@H]1c3cc(c(OC)cc3CCN1C)Oc1c(OCC(O)CN3CCN(C#N)CC3)c(OC)cc3c1[C@H](C2)N(C)CC3 (stereo partly shown) [BS-FC-421],1 µg/mL,2.8 µg/mL,,0.97 µg/mL,3.79 µg/mL,,0.95 µg/mL,2.55 µg/mL,,,,,,,,,,,
